The test system of one assay is A2780 ovarian cells. The experiment in a line: A2780 Ovarian Cell Proliferation Assay in Lipid Reduced Medium, with and without Palmitate (MTT). Type of assay: cell-based. Particulars: 10% lipid-reduced serum, 96 h; for IC50: Homo sapiens.
Assay [1] addresses Human FASN (hFASN enzyme, full length) (Homo sapiens (Human), UniProt P49327). Description: Fatty Acid Synthase (FASN) Inhibition Scintillation Proximity Assay. To be noted: hFASN SPA, 3H-acetyl-CoA/malonyl-CoA; mean if tested more than once; ~ = standard error of pIC50 >0.5. The format is biochemical. As for the experimental part: In this assay, inhibition of FASN activity is measured using ^3H-acetyl-CoA and malonyl-CoA as substrates. ^3H-Acetyl CoA is converted to ^3H-palmitate through a series of reactions by the FASN protein, which contains 7 functional domains and carries out 7 enzymatic reactions to ultimately produce ^3H-palmitate. The assay principle is based upon the fact that ^3H-acetyl-CoA is hydrophilic and the end product, ^3H-palmitate is hydrophobic.
0.9 μL test compound (at concentrations of 30 μM, 10 μM, 3 μM, 1 μM, 0.30 μM, 0.10 μM, 0.03 μM and 0.01 μM)/DMSO and 10 μL hFASN enzyme (full length, 300 ng, purified in house) or 10 μL assay buffer was added to the wells. […] The reaction was stopped by adding 20 μL Streptavidin coupled imaging beads (25 mg/ml). After incubation for 30 minutes at room temperature in the dark, the 384 well plate was centrifuged at 1500 rpm for 3 minutes and was measured after at least 24 hrs by the LEADseeker™, measuring emission using a 610±20 nm pass filter.
(§1) Raw data generated by the instrument were normalized to % Controlmin values, which were calculated as: % Controlmin=100*(x−mLC)/(mHC−mLC)
where mLC and mHC were the means of the low control wells and high control wells on the plate, after manual exclusion of outliers. […]
In general terms: SPA uses beads or plates that emit light when radiolabelled molecules are held near them.

Assay [2] concerns LNCaP_Vancouver prostate cells. The experiment in a line: In Vitro LNCaP Vancouver Prostate Cell Proliferation Assay in Lipid Reduced Medium. Type of assay: cell-based. Particulars: 10% lipid reduced serum, 96 h, ATP-glow luminescence; for IC50: Prostate cell, read-out: pIC50 LNCaP_Vancouver prostate cell (converted).
In assay [3] the test system is PC-3M-Luc-C6 prostate cells. The experiment in a line: In Vitro PC-3M-Luc-C6 Prostate Cell Proliferation Assay in Lipid Reduced Medium. The format is cell-based. Particulars: 10% lipid reduced serum, 96 h, ATP-glow luminescence; for IC50: Prostate cell, read-out: pIC50 PC-3M-Luc-C6 prostate cell (converted).
Assay [4] concerns the target FASN Keto-reductase Domain (hFASN enzyme, full length) (Homo sapiens (Human), UniProt P49327). The experiment in a line: Fatty Acid Synthase Keto-Reductase Domain (FASN KR) Inhibition. The format is biochemical. Particulars: NADPH oxidation at 340 nm, ethyl acetoacetate substrate, mean if tested more than once; for IC50: read-out: FASN Keto-reductase Domain pIC50 (converted). As for the experimental part:
After 20 minutes incubation at room temperature the plate was measured again (T2).
The decrease in absorbance was calculated as (Absorbance before incubation T1)−(Absorbance following incubation T2).
as §1
where mLC and mHC were the means of the low control wells and high control wells on the plate, after manual exclusion of outliers. A plot of Controlmin versus test compound concentration was fitted to a 4-parameter logistic curve using a non-linear least squares regression method.

Where [5] appears, read: 25 μM palmitate added (control), read-out: pIC50 With Palmitate (converted).
Setting [6] is: no palmitate, read-out: pIC50 Without Palmitate (converted).

15 compounds from patent US10413545B2, “Imidazolin-5-one derivative useful as FASN inhibitors for the treatment of cancer” (Janssen Pharmaceutica NV, priority 2013, dated 2019) can be followed below.

Where two headings read alike, the source gives them in different places. Some results are limits rather than exact numbers.

FASN Keto-reductase Domain (hFASN enzyme, full length), sequence (P49327 whole entry, the tested form may be a part): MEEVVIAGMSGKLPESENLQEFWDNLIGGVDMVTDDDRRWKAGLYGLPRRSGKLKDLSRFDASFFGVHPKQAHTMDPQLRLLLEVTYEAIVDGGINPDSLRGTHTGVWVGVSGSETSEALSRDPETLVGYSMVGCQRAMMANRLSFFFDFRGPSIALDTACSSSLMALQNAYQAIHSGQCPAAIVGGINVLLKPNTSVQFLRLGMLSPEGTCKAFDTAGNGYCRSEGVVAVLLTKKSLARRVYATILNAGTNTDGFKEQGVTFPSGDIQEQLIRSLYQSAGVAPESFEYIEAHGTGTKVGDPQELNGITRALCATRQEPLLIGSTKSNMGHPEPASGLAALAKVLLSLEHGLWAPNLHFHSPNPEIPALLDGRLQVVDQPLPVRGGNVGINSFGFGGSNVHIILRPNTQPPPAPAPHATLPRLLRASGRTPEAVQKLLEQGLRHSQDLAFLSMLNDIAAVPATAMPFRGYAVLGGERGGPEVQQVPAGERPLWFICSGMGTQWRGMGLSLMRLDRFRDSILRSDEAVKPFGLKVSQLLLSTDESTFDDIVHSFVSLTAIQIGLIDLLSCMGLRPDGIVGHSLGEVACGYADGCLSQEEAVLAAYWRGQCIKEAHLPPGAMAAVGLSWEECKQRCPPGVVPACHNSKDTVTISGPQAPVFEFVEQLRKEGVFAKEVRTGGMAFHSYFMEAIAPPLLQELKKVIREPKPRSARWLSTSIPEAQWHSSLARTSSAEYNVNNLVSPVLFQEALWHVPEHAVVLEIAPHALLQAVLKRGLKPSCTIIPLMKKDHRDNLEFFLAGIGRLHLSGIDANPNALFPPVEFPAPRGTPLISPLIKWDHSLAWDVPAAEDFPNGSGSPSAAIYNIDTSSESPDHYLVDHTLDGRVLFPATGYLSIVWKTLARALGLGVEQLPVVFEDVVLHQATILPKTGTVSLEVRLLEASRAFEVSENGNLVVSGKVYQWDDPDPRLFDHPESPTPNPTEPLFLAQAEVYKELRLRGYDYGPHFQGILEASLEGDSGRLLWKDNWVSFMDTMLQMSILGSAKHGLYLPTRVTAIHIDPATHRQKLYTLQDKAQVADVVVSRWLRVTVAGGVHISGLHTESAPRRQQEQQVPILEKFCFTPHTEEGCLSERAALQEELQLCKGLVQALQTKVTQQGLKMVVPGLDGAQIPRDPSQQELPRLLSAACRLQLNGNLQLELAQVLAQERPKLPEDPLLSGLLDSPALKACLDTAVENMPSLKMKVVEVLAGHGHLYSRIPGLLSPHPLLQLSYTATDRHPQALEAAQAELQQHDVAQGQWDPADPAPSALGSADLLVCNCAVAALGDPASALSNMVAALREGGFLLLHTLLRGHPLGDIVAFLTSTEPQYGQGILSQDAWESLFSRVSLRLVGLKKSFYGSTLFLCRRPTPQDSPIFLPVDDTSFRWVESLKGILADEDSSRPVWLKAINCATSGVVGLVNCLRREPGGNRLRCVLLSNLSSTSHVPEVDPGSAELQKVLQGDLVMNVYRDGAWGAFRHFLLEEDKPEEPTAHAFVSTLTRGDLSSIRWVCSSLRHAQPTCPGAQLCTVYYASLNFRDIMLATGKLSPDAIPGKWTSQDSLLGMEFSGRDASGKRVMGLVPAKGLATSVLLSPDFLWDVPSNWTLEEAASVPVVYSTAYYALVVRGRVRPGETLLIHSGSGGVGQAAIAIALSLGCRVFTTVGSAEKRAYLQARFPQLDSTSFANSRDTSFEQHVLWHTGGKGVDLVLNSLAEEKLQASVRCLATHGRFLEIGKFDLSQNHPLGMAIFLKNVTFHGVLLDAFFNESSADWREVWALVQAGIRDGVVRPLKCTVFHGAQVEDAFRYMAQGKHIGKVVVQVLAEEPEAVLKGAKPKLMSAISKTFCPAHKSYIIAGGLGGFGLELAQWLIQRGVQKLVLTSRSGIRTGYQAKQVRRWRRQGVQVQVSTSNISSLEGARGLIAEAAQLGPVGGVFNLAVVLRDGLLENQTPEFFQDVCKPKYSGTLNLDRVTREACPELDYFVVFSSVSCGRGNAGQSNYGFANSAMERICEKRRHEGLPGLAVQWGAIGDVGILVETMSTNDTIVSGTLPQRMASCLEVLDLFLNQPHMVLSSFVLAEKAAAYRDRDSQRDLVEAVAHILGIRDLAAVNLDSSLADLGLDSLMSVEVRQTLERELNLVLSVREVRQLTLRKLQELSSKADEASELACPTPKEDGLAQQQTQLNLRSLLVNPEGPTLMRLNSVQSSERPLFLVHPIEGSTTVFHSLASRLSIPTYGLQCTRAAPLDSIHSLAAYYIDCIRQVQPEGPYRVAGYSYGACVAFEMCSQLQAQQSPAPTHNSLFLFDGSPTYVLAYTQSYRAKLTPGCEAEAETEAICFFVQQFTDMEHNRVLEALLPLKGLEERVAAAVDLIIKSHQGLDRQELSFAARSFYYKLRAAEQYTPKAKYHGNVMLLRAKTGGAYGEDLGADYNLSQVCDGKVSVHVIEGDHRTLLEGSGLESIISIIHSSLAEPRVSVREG
Human FASN (hFASN enzyme, full length), sequence (P49327 whole entry, the tested form may be a part): as above

On to “1-((1-(cyclopropanecarbonyl)azetidin-3-yl)methyl)-2-(2-fluoro-4-(1-methyl-1H-indazol-5-yl)phenyl)-4,4-dimethyl-1H-1-imidazol-5(4H)-one [Compound 69]”, for which, in the assay with A2780 ovarian cells (25 μM palmitate added (control)), the “pIC50 With Palmitate” value is reported as under 5. In addition, the “pIC50 Without Palmitate” value with A2780 ovarian cells (no palmitate) was 7.19. In assay [1], the “Human FASN pIC50” value is 6.96. In addition, the “pIC50 LNCaP_Vancouver prostate cell” value in assay [2] amounted to 6.87. In addition, in assay [3], the “pIC50 PC-3M-Luc-C6 prostate cell” value is on record as 7.04. Moreover, the “FASN Keto-reductase Domain pIC50” value in assay [4] came to 6.67.

For the compound `CC1(C)N=C(c2ccc(-c3n[nH]c4ccccc34)cc2F)N(C[C@@H]2CCN(C(=O)C3CC3)C2)C1=O` [Compound 57, (R)-1-((1-(cyclopropanecarbonyl)pyrrolidin-3-yl)methyl)-2-(2-fluoro-4-(1H-indazol-3-yl)phenyl)-4,4-dimethyl-1H-imidazol-5(4H)-one], the IC50 in assay [2] is 1780 nM; in assay [3] it was 646 nM; in assay [4], 2750 nM.

Turning to `CC1(C)N=C(c2ccc(-c3c[nH]c4ccccc34)cc2F)N(C[C@@H]2CCN(C(=O)C3CC3)C2)C1=O` [Compound 63, (R)-1-((1-(cyclopropanecarbonyl)pyrrolidin-3-yl)methyl)-2-(2-fluoro-4-(1H-indol-3-yl)phenyl)-4,4-dimethyl-1H-imidazol-5(4H)-one], the IC50 in assay [2] is 525 nM; in assay [4] it was 186 nM.

Regarding `CC1(C)N=C(c2ccc(-c3c[nH]c4ccccc34)cc2)N(C[C@@H]2CCN(C(=O)C3CC3)C2)C1=O` [Compound 65, (R)-2-(4-(1H-indol-3-yl)phenyl)-1-((1-(cyclopropanecarbonyl)pyrrolidin-3-yl)methyl)-4,4-dimethyl-1H-imidazol-5(4H)-one], the IC50 with A2780 ovarian cells (setting [5]) is over 10000 nM; in the assay on A2780 ovarian cells (setting [6]) it was 263 nM; in assay [2], 1260 nM; in assay [3], about 912 nM.

In the case of `CC1(C)N=C(c2ccc(-c3ccc4cc(F)ccc4c3)cc2F)N(C[C@@H]2CCN(C(=O)C3CC3)C2)C1=O` [Compound 66], the IC50 in the assay with A2780 ovarian cells (setting [6]) is about 427 nM; in assay [2], 692 nM; in assay [3] it was 589 nM; in assay [4], 52.5 nM.

On to `CC1(C)N=C(c2ccc(-c3ccc4cccc(F)c4c3)cc2F)N(C[C@@H]2CCN(C(=O)C3CC3)C2)C1=O` [Compound 67, (R)-1-((1-(cyclopropanecarbonyl)pyrrolidin-3-yl)methyl)-2-(2-fluoro-4-(8-fluoronaphthalen-2-yl)phenyl)-4,4-dimethyl-1H-imidazol-5(4H)-one], for which the IC50 was about 195 nM with A2780 ovarian cells (setting [6]), 407 nM in assay [2] and 145 nM in assay [3].

Turning to `CC1(C)N=C(c2ccc(-c3ccc4cnccc4c3)cc2F)N(C[C@@H]2CCN(C(=O)C3CC3)C2)C1=O` [Compound 68, (R)-1-((1-(cyclopropanecarbonyl)pyrrolidin-3-yl)methyl)-2-(2-fluoro-4-(isoquinolin-6-yl)phenyl)-4,4-dimethyl-1H-imidazol-5(4H)-one], the IC50 in the assay on A2780 ovarian cells (setting [6]) is 17.4 nM; in assay [2], 204 nM; in assay [4] it was 47.9 nM.

On to `Cn1cc(-c2ccc(-c3ccc(C4=NC(C)(C)C(=O)N4CC4CN(C(=O)C5(C)CC5)C4)c(F)c3)cc2)cn1` [Compound 70], for which the IC50 was over 10000 nM in the assay on A2780 ovarian cells (setting [5]), 24.5 nM in the assay with A2780 ovarian cells (setting [6]), 135 nM in assay [2] and 11 nM in assay [3].

`CC1(C)N=C(c2ccc(-c3nc4ccccc4[nH]3)cc2)N(C[C@@H]2CCN(C(=O)C3CC3)C2)C1=O` [Compound 71, (R)-2-(4-(1H-benzo[d]imidazol-2-yl)phenyl)-1-((1-(cyclopropanecarbonyl)pyrrolidin-3-yl)methyl)-4,4-dimethyl-1H-imidazol-5(4H)-one]: the results for the IC50 in the assay on A2780 ovarian cells (setting [5]) and in the assay on A2780 ovarian cells (setting [6]) were over 10000 nM and about 9330 nM, respectively. In assay [1], the “Human FASN pIC50” value stood at 5.23.

Turning to `CC1(C(=O)N2CC(CN3C(=O)C(C)(C)N=C3c3ccc(-c4ccc5cc(F)ccc5c4)cc3F)C2)CC1` [Compound 72, 2-(2-fluoro-4-(6-fluoronaphthalen-2-yl)phenyl)-4,4-dimethyl-1-((1-(1-methylcyclopropanecarbonyl)azetidin-3-yl)methyl)-1H-imidazol-5(4H)-one], the IC50 with A2780 ovarian cells (setting [5]) was 7760 nM; with A2780 ovarian cells (setting [6]), about 25.7 nM; in assay [2] it was 295 nM; in assay [3], 26.9 nM.

As to `Cn1ncc2cc(-c3ccc(C4=NC(C)(C)C(=O)N4C[C@@H]4CCN(C(=O)C5(C)CC5)C4)c(F)c3)ccc21` [Compound 73, (R)-2-(2-fluoro-4-(1-methyl-1H-indazol-5-yl)phenyl)-4,4-dimethyl-1-((1-(1-methylcyclopropanecarbonyl)pyrrolidin-3-yl)methyl)-1H-imidazol-5(4H)-one], the IC50 in the assay with A2780 ovarian cells (setting [5]) is over 10000 nM; in the assay with A2780 ovarian cells (setting [6]), 13.5 nM; in assay [2], 398 nM; in assay [3] it was 18.6 nM.

As to `Cn1cc(-c2ccc(-c3ccc(C4=NC(C)(C)C(=O)N4C[C@@H]4CCN(C(=O)C5(C)CC5)C4)c(F)c3)cc2)cn1` [Compound 74, (R)-2-(3-fluoro-4′-(1-methyl-1H-pyrazol-4-yl)-[1,1′-biphenyl]-4-yl)-4,4-dimethyl-1-((1-(1-methylcyclopropanecarbonyl)pyrrolidin-3-yl)methyl)-1H-imidazol-5(4H)-one], the IC50 in the assay with A2780 ovarian cells (setting [5]) is over 10000 nM; with A2780 ovarian cells (setting [6]), 3.89 nM; in assay [2], 11.5 nM; in assay [3], about 8.32 nM.

On to `Cc1cc(-c2ccc3c(cnn3C)c2)ccc1C1=NC(C)(C)C(=O)N1CC1CN(C(=O)C2(C)CC2)C1` [Compound 77, 4,4-dimethyl-2-(2-methyl-4-(1-methyl-1H-1-indazol-5-yl)phenyl)-1-((1-(1-methylcyclopropanecarbonyl)azetidin-3-yl)methyl)-1H-imidazol-5(4H)-one], for which the IC50 in the assay on A2780 ovarian cells (setting [5]) is over 10000 nM; in the assay with A2780 ovarian cells (setting [6]), 316 nM; in assay [2], 1170 nM; in assay [3], 112 nM.

Take `Cn1ncc2cc(-c3ccc(C4=NC(C)(C)C(=O)N4CC4CN(C(=O)C5(O)CC5)C4)c(F)c3)ccc21` [Compound 78, 2-(2-fluoro-4-(1-methyl-1H-indazol-5-yl)phenyl)-1-((1-(1-hydroxycyclopropanecarbonyl)azetidin-3-yl)methyl)-4,4-dimethyl-1H-imidazol-5(4H)-one]: the IC50 in the assay on A2780 ovarian cells (setting [5]) is over 10000 nM; in the assay on A2780 ovarian cells (setting [6]), 537 nM; in assay [2], 3090 nM; in assay [3], 447 nM.

As to `Cc1cc(-c2ccc(-c3cnn(C)c3)cc2)ccc1C1=NC(C)(C)C(=O)N1CC1CN(C(=O)C2(C)CC2)C1` [Compound 87, 4,4-dimethyl-2-(3-methyl-4′-(1-methyl-1H-pyrazol-4-yl)-[1,1′-biphenyl]-4-yl)-1-((1-(1-methylcyclopropanecarbonyl)azetidin-3-yl)methyl)-1H-imidazol-5(4H)-one], the IC50 in the assay on A2780 ovarian cells (setting [5]) is about 10000 nM; in the assay on A2780 ovarian cells (setting [6]), 11.7 nM; in assay [2], 178 nM; in assay [3], about 70.8 nM.
